Measured values from US10377755B2, “BCL-2 inhibitors” (Newave Pharmaceutical Inc., priority 2016, dated 2019).

Legend:
H146 = assay: In vitro anti-proliferation assay (ATPlite) in BCL-XL-dependent small cell lung cancer cell line H146; format: cell-based; conditions: Homo sapiens, NCI-H146; about 72 hours, 5% FBS
Protocol: Cell antiproliferation is assayed by PerkinElmer ATPlite™ Luminescence Assay System. Briefly, the various test cancer cell lines are plated at a density of about 1×10^4 cells per well in Costar 96-well plates, and are incubated with different concentrations of compounds for about 72 hours in medium supplemented with 5% FBS. One lyophilized substrate solution vial is then reconstituted by adding 5 mL of substrate buffer solution, and is agitated gently until the solution is homogeneous. About 50 μL of mammalian cell lysis solution is added to 100 μL of cell suspension per well of a microplate, and the plate is shaken for about five minutes in an orbital shaker at ˜700 rpm. This procedure is used to lyse the cells and to stabilize the ATP. Next, 50 μL substrate solution is added to the wells and microplate is shaken for five minutes in an orbital shaker at ˜700 rpm. Finally, the luminescence is measured by a PerkinElmer TopCount® Microplate Scintillation Counter. Such assays, carried out with a range of doses of test compounds, allow the determination of the cellular anti-antiproliferative IC50 of the compounds of the present invention.

Mcl-1 = Mcl-1 (Homo sapiens (Human), UniProt Q07820); conditions: cited from earlier work
RS4;11 cells = conditions: cited from earlier work
CLL [1] = conditions: average; read-out: average EC50, apoptosis in CLL; cited from earlier work
RS4;11 xenografts = conditions: single dose of 100 mg/kg; cited from earlier work
CLL [2] = conditions: Human Phase I and II; cited from earlier work

Sequence of Mcl-1 (Q07820 whole entry): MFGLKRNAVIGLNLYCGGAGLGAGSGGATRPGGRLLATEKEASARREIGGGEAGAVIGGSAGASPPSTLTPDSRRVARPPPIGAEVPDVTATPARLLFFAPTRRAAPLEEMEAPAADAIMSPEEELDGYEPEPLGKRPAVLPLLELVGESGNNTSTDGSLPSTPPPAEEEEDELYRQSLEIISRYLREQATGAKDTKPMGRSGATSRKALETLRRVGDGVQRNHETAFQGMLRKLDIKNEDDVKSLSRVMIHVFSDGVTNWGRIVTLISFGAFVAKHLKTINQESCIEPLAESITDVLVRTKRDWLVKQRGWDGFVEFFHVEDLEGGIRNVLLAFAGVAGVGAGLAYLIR

## CC1(C)CCC(CN2CCN(c3ccc(C(=O)NS(=O)(=O)c4ccc(NCC5CCOCC5)c([N+](=O)[O-])c4)c(Oc4cnc5[nH]ccc5c4)c3)CC2)=C(c2ccc(Cl)cc2)C1 [ABT-199]
H146
  IC50: > 2000 nM
Mcl-1
  activity to Mcl-1: no activity
RS4;11 cells
  EC50: 8 nM
CLL [1]
  EC50: 3 nM
RS4;11 xenografts
  maximal tumor growth inhibition: 95%
  tumor growth delay: 152%
CLL [2]
  clinical efficacy for CLL: highly efficacious
  clinical toxicity: lethal tumour lysis syndrome
